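Assay format: 96-well plates, 48-hour exposure. At the TGI there is no net growth.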
Tests used:
Assay in all cases: DTP human tumour cell line panel, 48 h
[1] = test system: 786-0 renal
[2] = test system: A498 renal
[3] = test system: A549 NSCLC
[4] = test system: ACHN renal
[5] = test system: BT-549 breast
[6] = test system: CAKI-1 renal
[7] = test system: CCRF-CEM leukemia
[8] = test system: COLO 205 colon
[9] = test system: DU-145 prostate
[10] = test system: EKVX NSCLC
[11] = test system: HCC-2998 colon
[12] = test system: HCT-116 colon
[13] = test system: HCT-15 colon
[14] = test system: HL-60(TB) leukemia
[15] = test system: HOP-62 NSCLC
[16] = test system: HOP-92 NSCLC
[17] = test system: HS 578T breast
[18] = test system: HT29 colon
[19] = test system: IGROV1 ovarian
[20] = test system: K-562 leukemia
[21] = test system: KM12 colon
[22] = test system: LOX IMVI melanoma
[23] = test system: M14 melanoma
[24] = test system: MALME-3M melanoma
[25] = test system: MCF7 breast
[26] = test system: MDA-MB-231 breast
[27] = test system: MDA-MB-435
[28] = test system: MDA-N
[29] = test system: MOLT-4 leukemia
[30] = test system: NCI-H226 lung
[31] = test system: NCI-H23 lung
[32] = test system: NCI-H522 lung
[33] = test system: NCI/ADR-RES ovarian
[34] = test system: OVCAR-3 ovarian
[35] = test system: OVCAR-4 ovarian
[36] = test system: OVCAR-5 ovarian
[37] = test system: OVCAR-8 ovarian
[38] = test system: PC-3 prostate
[39] = test system: RPMI-8226 leukemia
[40] = test system: RXF 393 renal
[41] = test system: SF-268 CNS
[42] = test system: SF-295 CNS
[43] = test system: SF-539 CNS
[44] = test system: SK-MEL-2 melanoma
[45] = test system: SK-MEL-28 melanoma
[46] = test system: SK-MEL-5 melanoma
[47] = test system: SK-OV-3 ovarian
[48] = test system: SN12C renal
[49] = test system: SNB-19 CNS
[50] = test system: SNB-75 CNS
[51] = test system: SR leukemia
[52] = test system: SW-620 colon
[53] = test system: T-47D breast
[54] = test system: TK-10 renal
[55] = test system: U251 CNS
[56] = test system: UACC-257 melanoma
[57] = test system: UACC-62 melanoma
[58] = test system: UO-31 renal

## Nc1cc2c3c(cccc3c1)C(=O)N(c1ccc(OCCN3CCCCC3)cc1)C2=O
[1]
  TGI: 43.3 µM
[2]
  TGI: 31.9 µM
[3]
  TGI: 28.2 µM
[4]
  TGI: 29.4 µM
[5]
  TGI: 38.4 µM
[6]
  TGI: 32.4 µM
[7]
  TGI: 88.3 µM
[8]
  TGI: 35.7 µM
[9]
  TGI: 33.5 µM
[10]
  TGI: 45.7 µM
[11]
  TGI: 34 µM
[12]
  TGI: 51.7 µM
[13]
  TGI: 25.4 µM
[14]
  TGI: 26.5 µM
[15]
  TGI: 31.8 µM
[16]
  TGI: 34.2 µM
[17]
  TGI: 63.4 µM
[18]
  TGI: 31.9 µM
[19]
  TGI: 34.4 µM
[20]
  TGI: 29.8 µM
[21]
  TGI: 41.3 µM
[22]
  TGI: 35.4 µM
[23]
  TGI: 32.3 µM
[24]
  TGI: 19.8 µM
[25]
  TGI: 36.3 µM
[26]
  TGI: 31.5 µM
[27]
  TGI: 55.7 µM
[28]
  TGI: 41.2 µM
[29]
  TGI: 35.7 µM
[30]
  TGI: 42.1 µM
[31]
  TGI: 30.2 µM
[32]
  TGI: 35.2 µM
[33]
  TGI: 40.9 µM
[34]
  TGI: 30.7 µM
[35]
  TGI: 35.7 µM
[36]
  TGI: 44 µM
[37]
  TGI: 36.4 µM
[38]
  TGI: 32.9 µM
[39]
  TGI: 41.7 µM
[40]
  TGI: 35.7 µM
[41]
  TGI: 37.7 µM
[42]
  TGI: 33.4 µM
[43]
  TGI: 27.9 µM
[44]
  TGI: 31.6 µM
[45]
  TGI: 44.8 µM
[46]
  TGI: 35.2 µM
[47]
  TGI: 31.7 µM
[48]
  TGI: > 54.3 µM
[49]
  TGI: 32.4 µM
[50]
  TGI: 30.6 µM
[51]
  TGI: 36.6 µM
[52]
  TGI: 48.5 µM
[53]
  TGI: 46.6 µM
[54]
  TGI: 31.3 µM
[55]
  TGI: 61.6 µM
[56]
  TGI: 31.6 µM
[57]
  TGI: 36.6 µM
[58]
  TGI: 24.1 µM

Source: PubChem BioAssay (NCI)
